Test results taken from patent US20030134264A1, “Method of preventing darkening of skin or inhibiting melanization of melenin monomer and polymerization inhibitor of biological dihydroxyindole compound” (SHISEIDO COMPANY, LTD., priority 2001, published 2003).

Assay: Inhibition of melanization of DHICA by ultraviolet rays (absorbance at 405 nm, microplate)
Conditions: FL-20BLB fluorescent lamp, long wavelength UV, absorbance 405 nm
Protocol: DHICA can be synthesized by a known method. 0.01 to 1.0 mg/ml of DHICA or its sodium salt is dissolved in water or a buffer such as phosphate buffer and 100 to 200 μl amounts distributed into microplate wells. A fluorescent lamp or solar simulator or monochrometer is used to irradiate this with ultraviolet rays for 10 minutes to 3 hours, then the absorbance at 405 nm is measured by a microplate reader to evaluate the amount of black-brown melanin.
0.01 to 1.0 mg/ml of DHICA or its sodium salt is dissolved in water or a buffer such as a phosphate buffer and 100 to 200 μl amounts distributed into microplate wells. Compounds or plant extracts prepared at various concentrations are added in 1 to 100 μl amounts or before addition a fluorescent lamp or solar simulator or monochrometer is used to irradiate this with ultraviolet rays for 10 minutes to 3 hours, then the absorbance of 405 nm is measured by a microplate reader to evaluate the extent of black-brown melanin and evaluate the effect of the compound or plant extract.
The action of an inhibitor containing vitamin C and its derivatives as effective ingredients in inhibiting melanization of DHICA due to ultraviolet rays was evaluated by the following effect of inhibition of melanization of DHICA due to ultraviolet rays.
(§1) 0.01 to 1.0 mg/ml of DHICA or its sodium salt is dissolved in water and 100 μl amounts distributed into microplate wells. 100 μl of ascorbic acid or its derivative adjusted to various concentrations was added and an FL-20BLB fluorescent lamp used to irradiate long wavelength ultraviolet rays. The absorbance at 405 nm was measured by a microplate reader to evaluate the amount of black-brown melanin and evaluate the effect of the compound.
as §1, with “The action of an inhibitor containing 3-O-ethyl ascorbic acid as effective ingredients in inhibiting melanization of DHICA due to ultraviolet rays was evaluated by the following effect of inhibition of melanization of DHICA due to ultraviolet rays. 0.01” for “0.01”, “the extent” for “the amount”

Compound	Rate of inhibition of UV-introduced melanization of DHICA (%) (sample concentration 0.01%)	Rate of suppression of UV-induced melanization of DHICA (%) (sample concentration 0.01%)	Rate of inhibition of UV-introduced melanization of DHICA (%) (sample concentration 0.1%)	Rate of suppression of UV-induced melanization of DHICA (%) (sample concentration 0.1%)
CCOC1=C(O)C(=O)O[C@@H]1[C@@H](O)CO [3-O-ethyl ascorbic acid]	40	40	80	80
O=C1O[C@H]([C@@H](O)CO)C(O)=C1O[C@H]1O[C@H](CO)[C@@H](O)[C@H](O)[C@H]1O [AA-2G, Ascorbate-2-O-α-glucoside]	–	–	20	20
O=C1O[C@H]([C@@H](O)CO)C([O-])=C1OP(=O)([O-])[O-].O=C1O[C@H]([C@@H](O)CO)C([O-])=C1OP(=O)([O-])[O-].[Mg+2].[Mg+2].[Mg+2] [APM, Magnesium ascorbate phosphate ester]	–	–	20	–
O=C1O[C@H]([C@@H](O)CO)C(O)=C1O [Ascorbic acid]	–	–	70	70
